Patent publication US11083732B2, “Use of negative modulators of GABA receptors containing alpha5 subunits as fast acting antidepressants” (University of Maryland, Baltimore, priority 2014, dated 2021)

Tests used:
[1] = tested on: chronically stressed animals; details: Li et al., 2011; cited from earlier work
[2] = tested on: depressive symptoms in humans; details: acute administration; cited from earlier work
[3] = tested on: rats subjected to chronic restraint stress; experiment: Social interaction test (SIT) after chronic restraint stress (CRS); format: in vivo, rat; details: MRK-016 3 mg/kg
Source text: (§1) MRK-016 rapidly reverses loss of sucrose preference and social interaction behaviors after chronic restraint stress (FIG. 9). […] This persisted for 7 days despite further stress exposure. and in the same animals after an additional week of CRS and 7 days after the injection of MRK-016.
(§2) Chronic restraint stress (CRS). Male Sprague Dawley rats (4-5 weeks-old; Harlan Laboratories) were placed in appropriately sized restraint tubes, highly restricting their movement for periods of four hours in a brightly lit lab, every day for ten days during the light phase of their diurnal cycle (Lim et al., 2012).
Social interaction test (SIT). As described previously (Berton et al., 2006), rats were placed in a plastic enclosure (82×82 cm) with a 5×5 grid of squares (16.4×16.4 cm) visible underneath the clear plastic flooring. A small translucent perforated plastic box (20×16 cm) was placed against the center of one wall of the arena. During the testing conditions white overhead fluorescent lighting was used to illuminate the arena. A video camera positioned 170 cm above the floor of the arena was used to track the movements of the rats during the experiment.
Each test consisted of a “target-absent” trial followed by a “target-present” trial. During testing, an individual test rat was placed in the center of the arena and, after 30s of adaptation, the rat's movements were recorded with the video camera for 2.5 minutes. […]
Results were quantified as the percentage of time spent in the “interaction zone” (the five grid squares immediately surrounding the plastic cage) as measured for both the “target-absent” and “target-present” trials. […]
(§3) Several hedonic behaviors in rodents are sensitive to chronic stress and are restored by chronic, but not acute, administration of SSRIs, providing one means to screen for potential antidepressant compounds. First, it was determined whether L-655,708 would rapidly (<24 hrs) restore normal hedonic behavior following chronic restraint stress (Watanabe et al., 1992; Lim et al., 2012), consistent with the rapid antidepressant-like actions of ketamine (Li et al., 2011). […]

[4] = tested on: rats subjected to chronic restraint stress; experiment: Sucrose preference test (SPT) after chronic restraint stress (CRS); format: in vivo, rat; details: MRK-016 3 mg/kg
Source text: as §1, §2
Sucrose preference test (SPT). Rats were given a choice between two bottles containing tap water or a 1% sucrose solution (Rygula et al., 2006). Testing was conducted overnight (16 hours), including the full duration of their dark phase. Animals were first trained with both bottles while group-housed. For subsequent tests, including during the baseline period, animals were individually housed. Sucrose preference was calculated as amount of the sucrose solution consumed as a percentage of the total amount of liquid consumed.
Drugs/stats. L-655,708 was purchased from Tocris Bioscience (R&D Systems, Minneapolis, Minn.) and prepared at a concentration of 5 mM in 75% saline/25% DMSO. […] This dose is sufficient to occupy about 70% of forebrain binding sites (Atack et al., 2005)
as §3, with “2011). Baseline measurements were first made of social interaction and sucrose preference, and then 4-5 week old rats were subjected to ten days of CRS.” for “2011).”

[5] = tested on: TA-CA1 synapses; experiment: Anpirtoline (5-HT1BR agonist) potentiation of TA-CA1 EPSP slope in hippocampal slices; parameters: species or system rat; details: slices after CUS
Experimental: Experiment B. Do alpha5 GABA-NAMs restore 5-HT1BR-mediated potentiation? One can consider whether alpha5 GABA-NAMs reverse another phenotypic alteration of stressed TA-CA 1 synapses: amplification and persistence of responses to the 5-HT1BR agonist anpirtoline (FIG. 3A) (Cai et al., 2013). Slices are prepared from the four groups described in Experiment A. Anpirtoline (501.1M) is bath applied for 60 min, followed by a 90 min washout period. In specific embodiments, anpirtoline potentiation of […], vehicle-injected controls and that injection of alpha5 GABA-NAM […], but has no effect in control rats (see FIG. 3B).

Q: With CNC1(c2ccccc2Cl)CCCCC1=O (stereo not drawn) [ketamine] as the compound, how does the “time to restoration of sucrose preference and novelty suppressed feeding behaviors” value [1] read?
A: The value was 24 h.

Q: What about the “persistence of antidepressant effects” value [2] of the same compound?
A: Its value is “up to two weeks”.

Q: What about the “time to improved mood and reduced depressive symptoms” value [2] of the same compound?
A: Its value is 1 to 2 h.

Q: With Cc1cc(-c2nncc3c(C(C)(C)C)c(OCc4ncnn4C)nn23)no1 [MRK-016, 3-tert-Butyl-7-(5-methylisooxazol-3-yl)-2-(1-methyl-1H-1,2,4-triazol-5-ylmethoxy)-pyrazolo[1,5-d]-[1,2,4] triazine] as the compound, how does the social interaction scores ([3]; CRS, 24 hours after treatment, vs pre-stress) read?
A: Its social interaction scores is “not significantly different than the pre-stress condition”.

Q: What about the “persistence of effect on social interaction” value ([3]; despite further stress exposure) of the same compound?
A: The value was 7 days.

Q: What about the “persistence of effect on sucrose preference” value ([4]; CRS continued) of the same compound?
A: Its value is 7 days.

Q: And the sucrose preference ([4]; CRS, 24 hours after treatment, vs baseline)?
A: Its sucrose preference is “not significantly different than the baseline before stress exposure”.

Q: What does the source list for Clc1cccc(SC2CCNCC2)n1 [anpirtoline]?
A: persistence of potentiation after washout [5]: > 60 min; potentiation of TA-CA1 EPSP slope ([5]; vs control slices): larger
